According to patent US20240092774A1, “HETEROAROMATIC COMPOUNDS AND USES THEREOF” (HUTCHISON MEDIPHARMA LIMITED, priority 2020, published 2024):

Legend:
[1] = biological target: Recombinant human CSF1R kinase (Homo sapiens (Human), UniProt P07333); assay: Measurement of CSF1R kinase activity at molecular level (Z-LYTE); type: biochemical; conditions: Z-LYTE Tyr 1 peptide
Procedure: Invitrogen, PV3227; • Development reagent B: Invitrogen, PV3295; • Development buffer: Invitrogen. P3127; • Stopping solution: Invitrogen, P3094; • Recombinant human CSF1R kinase: Invitrogen, P[…]; • 384 well plate, black: Corning. 3575; • Envision: Perkin Elmer. 2. […] The test compound was diluted in gradient to 4-fold the reaction concentration and the concentration of DMSO was kept at 8%. […] The mixture was mixed gently with a pipette. • 4) A phosphorylated peptide substrate solution (PP solution): 0.4 μL of Z-LYTETM Tyr1 phosphorylated peptide substrate was added to 99.6 μl of 1.33× kinase buffer. • 5) ATP solution: 10 mM of ATP was diluted to 760 μM with 1.33× kinase buffer to prepare ATP solution. • 6) Development solution: Development reagent B was diluted with Development buffer at a ratio of 1:200. 3. […] 2.5 μL of 4× test compound was added to each reaction well of the 384 plate, and the corresponding volume of 8% DMSO was added to the control well. The plate was placed on ice. […] After adding the reaction components, the 384-well plate was sealed and incubated at 25-30° C. for 1 h in dark. 2) Development Reaction 5 μL of Development solution was added to each well, sealed and incubated at 25-30° C. for another 1 h in dark. 3) Reaction Stopping and Plate Reading 5 μL of stopping solution was added to each well. The Coumarin value (excitation at 400 nm, emission at 445 nm) and Fluorescein value (excitation at 400 nm, emission at 520 nm) were measured, respectively. 4. […] Coumarin emission read-out (445 nm)/Fluorescein emission read-out (520 nm); • C3 445 nm: 100% phosphorylated Coumarin emission read-out; • C3 520 nm: 100% phosphorylated Fluorescein emission read-out; • C1 445 nm: 0% phosphorylated Coumarin emission read-out; • C1 520 nm: 0% phosphorylated Fluorescein emission read-out. […] 5. IC50 values: calculated by using software XL-FitTM (version 5.3) supplied by ID Business Solutions (Guildford, UK), which is an additional software to Microsoft Excel.

[2] = biological target: CSF1R phosphorylation in THP-1 cells (Homo sapiens (Human), UniProt P07333); assay: Detection of CSF1R phosphorylation activity at cell level (p-CSF1R ELISA, M-CSF stimulated THP-1 cells); type: cell-based; conditions: THP-1 cells, M-CSF stimulation, p-CSF1R ELISA; read-out: IC50
Chain of CSF1R phosphorylation in THP-1 cells (P07333 20-972): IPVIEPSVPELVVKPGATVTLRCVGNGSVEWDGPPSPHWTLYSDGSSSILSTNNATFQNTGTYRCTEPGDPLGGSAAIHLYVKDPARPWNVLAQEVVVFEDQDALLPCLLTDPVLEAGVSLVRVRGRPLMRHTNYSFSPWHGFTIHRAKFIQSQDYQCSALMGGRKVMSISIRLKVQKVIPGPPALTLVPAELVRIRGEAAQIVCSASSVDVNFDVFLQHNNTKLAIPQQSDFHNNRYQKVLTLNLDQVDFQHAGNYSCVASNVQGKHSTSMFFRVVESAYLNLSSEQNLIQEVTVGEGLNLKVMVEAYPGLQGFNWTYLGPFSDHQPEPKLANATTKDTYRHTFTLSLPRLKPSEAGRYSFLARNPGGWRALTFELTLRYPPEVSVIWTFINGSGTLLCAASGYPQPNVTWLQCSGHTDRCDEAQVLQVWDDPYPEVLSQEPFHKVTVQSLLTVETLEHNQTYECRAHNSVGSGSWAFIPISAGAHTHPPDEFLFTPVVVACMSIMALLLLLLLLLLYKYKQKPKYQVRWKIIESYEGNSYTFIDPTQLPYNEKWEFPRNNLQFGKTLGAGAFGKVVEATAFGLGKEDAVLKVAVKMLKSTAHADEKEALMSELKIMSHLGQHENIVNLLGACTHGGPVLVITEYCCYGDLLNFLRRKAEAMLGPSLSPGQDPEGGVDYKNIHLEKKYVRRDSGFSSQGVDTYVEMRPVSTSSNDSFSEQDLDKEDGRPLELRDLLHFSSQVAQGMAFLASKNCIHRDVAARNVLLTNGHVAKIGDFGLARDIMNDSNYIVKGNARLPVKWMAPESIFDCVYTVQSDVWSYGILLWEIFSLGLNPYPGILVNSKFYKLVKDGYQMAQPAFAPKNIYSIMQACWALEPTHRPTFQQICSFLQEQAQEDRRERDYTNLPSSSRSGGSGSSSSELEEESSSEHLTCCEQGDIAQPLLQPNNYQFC
Procedure: THP-1 (ATCC), human acute monocytic leukemia cells.
3. Treatment of cells and preparation of lysis buffer
5 μL. of the diluted compound was added to the 50 μL cell culture system, the culture was cultured in a 5% CO2, 37° C. cell incubator for 60 min, 300 ng/mL of M-CSF was added to the cells, and the mixture was stimulated in the 37° C. cell incubator for 1 min, added 50 μL of cell lysis buffer, and stored in a refrigerator at −80° C.
100 μL/well of the p-CSF1R capture antibody diluted to 0.8 μg/mL with PBS was added to the ELISA plate, and the plate was coated on a shaker at room temperature overnight. The culture was washed with PBST, and then added blocking solution and incubated at room temperature for 2 h. The culture was washed with PBST, added 90 μL of cell lysis buffer, and incubated on a shaker at 25° C. for 2 h. The plate was washed with PBST three times, added 100 μL of anti-p-tyrosine-HRP detection antibody diluted with 0.1% PBS-BSA diluent, and incubated on a shaker at 25° C. for 2 h. The plate was washed with PBST washing liquid, added 100 μL of chromogenic substrate and incubated at room temperature for 10-20 min. The reaction was stopped by adding 50 μL of 2N H2SO4. The optical density signal (450/570 nm) of each well was detected in Labsystems Multiskan K3 or Envision.
wherein • Drug-treated well read-out: indicating the optical density signal of a cell well with the test compound treatment. • Background read-out: indicating the optical density signal of a well without cells but with cell lysis buffer. • Cell well read-out: indicating the optical density signal of a cell well not treated with the compound.
6. Calculation of IC50: obtained by using XL-Fit 5.3 software, […]

Chain of Recombinant human CSF1R kinase (P07333 20-972): as above

Structure (SMILES) | IC50 [1] | IC50 [2]
COc1ccc(COc2ncc(Oc3ccc4ncc(N5CCOCC5)c(=O)n4c3)cc2OC)cc1 [Compound 31] | 0.006 µM | 0.01 µM
COc1ccc(COc2ncc(Oc3ccc4ncc(N)c(=O)n4c3)cc2OC)cc1 [Compound 32] | 0.003 µM | 0.004 µM
COc1cc(Oc2ccc3ncc(N)c(=O)n3c2)cnc1OCc1ccc(C)cc1 [Compound 35] | 0.006 µM | 0.012 µM
COc1cc(Oc2ccc3ncc(C4CC4)c(=O)n3c2)cnc1OCc1ccc(C)cc1 [Compound 36] | 0.021 µM | 0.056 µM
COc1ccc(CCOc2ncc(Oc3ccc4ncc(C)c(=O)n4c3)cc2OC)cc1 [Compound 37] | 0.033 µM | 0.14 µM
COc1ccccc1CCOc1ncc(Oc2ccc3ncc(C)c(=O)n3c2)cc1OC [Compound 38] | 0.024 µM | 0.381 µM
COc1cccc(CCOc2ncc(Oc3ccc4ncc(C)c(=O)n4c3)cc2OC)c1 [Compound 39] | 0.015 µM | 0.3 µM
COc1cc(Oc2ccc3ncc(C)c(=O)n3c2)cnc1OCCc1ccccc1 [Compound 40] | 0.033 µM | 0.19 µM
Cc1cnc2ccc(Oc3cnc(OCc4ccc(Cl)cc4)nc3)cn2c1=O [Compound 41] | 0.023 µM | 0.551 µM
Cc1cnc2ccc(Oc3cnc(OCc4ccc(C5CC5)cc4)nc3)cn2c1=O [Compound 42] | 0.013 µM | 0.078 µM
COc1cc(Oc2ccc3ncc(C)c(=O)n3c2)cnc1OCc1ccccc1 [Compound 43] | 0.004 µM | 0.054 µM
COc1cc(Oc2ccc3ncc(C)c(=O)n3c2)cnc1OCc1ccc(C)cc1 [Compound 44] | 0.004 µM | 0.019 µM
Cc1cnc2ccc(Oc3cnc4c(c3)OCC(c3ccc(C5CC5)cc3)O4)cn2c1=O (stereo not drawn) [Compound 45, 7-((3-(4-cyclopropylphenyl)-2,3-dihydro-[1,4]dioxino[2,3-b]pyrin-7-yl)oxy)-3-methyl-4H-pyrido[1,2-a]pyrimidin-4-one] | 0.036 µM | 0.061 µM
COc1cc(Cc2ccnc(-c3cnn(C)c3)c2)cnc1OCc1ccc(C2CC2)cc1 [Compound 46, 2-((4-cyclopropylbenzyl)oxy)-3-methoxy-5-((2-(1-methyl-1H-pyrazol-4-yl)pyridin-4-yl)methyl)pyridine] | 0.028 µM | 0.005 µM
COc1ccc(COc2ncc(Cc3ccc4ncc(C)c(=O)n4c3)cc2OC)cc1 [Compound 47, 7-((5-methoxy-6-((4-methoxybenzyl)oxy)pyridin-3-yl)methyl)-3-methyl-4H-pyrido[1,2-a]pyrimidin-4-one] | 0.013 µM | 0.012 µM
OCCn1cc(-c2cc(Oc3cnc4c(c3)OCC(c3ccc(C5CC5)cc3)O4)ccn2)cn1 (stereo not drawn) [Compound 52, 2-(4-(4-((3-(4-cyclopropylphenyl)-2,3-dihydro-[1,4]dioxino[2,3-b]pyridin-7-yl)oxy)pyridin-2-yl)-1H-pyrazol-1-yl)ethan-1-ol] | 0.019 µM | 0.034 µM
Cc1cnc2ccc(Oc3cnc4c(c3)OC[C@@H](c3ccc(C5CC5)cc3)O4)cn2c1=O [Compound 57] | 0.015 µM | 0.016 µM
Cc1cnc2ccc(Oc3cnc4c(c3)OC[C@H](c3ccc(C5CC5)cc3)O4)cn2c1=O [Compound 58] | 0.012 µM | 0.026 µM
O=c1ccnc2ccc(Oc3cnc4c(c3)OC[C@@H](c3ccc(C5CC5)nc3)O4)cn12 [Compound 59] | 0.005 µM | 0.05 µM
O=c1ccnc2ccc(Oc3cnc4c(c3)OC[C@H](c3ccc(C5CC5)nc3)O4)cn12 [Compound 60] | 0.006 µM | 0.052 µM
Cc1cnc2ccc(Oc3cnc4c(c3)OC[C@@H](c3ccc(C5CC5)nc3)O4)cn2c1=O [Compound 61] | 0.003 µM | 0.029 µM
